From US20140134735A1, “Plant Cell Differentiation Promoter” (SHISEIDO COMPANY, LTD., priority 2011, published 2014)

Key:
[1] = tested on: Spathiphyllum embryogenic calluses; test: Effect of KODA concentration on differentiation from Spathiphyllum callus to normally regenerated plant bodies; type: cell-based; conditions: 0.03, 0.3 or 3 ppm KODA dropped onto calluses; 8 weeks
From the text: Embryogenic calluses subcultured in subculture medium were planted in fresh differentiation medium followed by dropping a 0.03 ppm, 0.3 ppm or 3 ppm aqueous solution of KODA onto the calluses and recording the number of normally regenerated plant bodies 8 weeks later.

tobacco callus = test: Effect of KODA on differentiation from tobacco callus; type: cell-based, Nicotiana tabacum; conditions: 100 μM KODA immersion
Method: After washing tobacco (Nicotiana tabacum) seeds with 70% ethanol, the surfaces of the seeds were sterilized for 3 minutes with 5% sodium hypochlorite and 0.05% Tween 20 followed by washing 5 times with sterilized water. After washing, the seeds were immersed in an aqueous KODA solution (100 μM) followed by planting the washed seeds on solid MS medium (Wako Pure Chemical Industries) containing 3% sucrose, 0.8% agar (Wako Pure Chemical Industries) and 2,4-dichlorophenoxyacetic acid (Kanto Chemical, 3 ppm) with kinetin (Nakarai Tesque, 0.1 ppm) and adjusted to pH 5.7 to induce calluses for 3 weeks under conditions of 25° C. and a light-dark cycle of 16 hours.
The above ground portions of the tobacco seedlings that underwent callus induction were removed, and only the root portions in which calluses were present were treated by immersing in 100 μM KODA (KODA treatment group) or water (control group) followed by inducing differentiation of the above ground portions under conditions of 25° C. and a light-dark cycle of 16 hours in solid differentiation medium obtained by adding 3% sucrose, 0.8% agar (Wako Pure Chemical Industries), […] (Nacalai Tesque, 0.2 ppm) and 6-benzyladenine (Nacalai Tesque, 2 ppm) to MS medium contained in plastic Petri dishes and adjusting to pH 5.7. Culturing in the differentiation medium was carried out by transferring to fresh differentiation medium after culturing for 2 weeks, namely for a total of 4 weeks. The resulting above ground portions were excised with a scalpel. The excised above ground portions were immersed in 100 μM aqueous KODA solution (KODA treatment group) or water (control group) followed by planting it in MS medium (100 mL) contained in culture bottles (CB-3, As One), which is prepared by adding sucrose (3%) to MS medium, and adjusting pH to 5.7, and is solidified with 0.8% agar, and then cultured for 4 weeks under conditions of 25° C. and light-dark cycle of 16 hours so as to differentiate below ground portions. […]

[2] = tested on: Spathiphyllum embryogenic calluses; test: Effect of KODA treatment time on differentiation from Spathiphyllum callus to adventitious embryo and germinants; type: cell-based; conditions: for Dehydrated adventitious embryo weight per flask: embryos recovered 6 weeks after planting in differentiation medium
Method: Cultured seedlings subcultured under conditions of 25° C. in a dark location (photosynthetic photon flux density: 5.7 μmole/m^2/sec, day length: 16 hours) in a solid medium obtained by adding 3% sucrose and 0.8% agar (Wako Pure Chemical Industries, Tokyo, Japan) to MS (Murashige and Skoog) medium placed in a flat box (internal volume: 300 ml) manufactured by Asahi Techno Glass followed by adjusting the pH to 5.8 were used as cultured Spathiphyllum seedlings (variety: Double Take).
Sucrose (3%), 2,4-dichlorophenoxyacetic acid (4 ppm), benzyladenine (BA) (0.2 ppm), casein acid hydrolysate (100 ppm) and 5 mM 2-morpholinoethanesulfonic acid monohydrate (MES) were added to MS medium solidified with 0.8% agar to obtain a medium for callus induction and growth (to be referred to as “subculture medium”, pH 5.8). Leaf sheaths were collected from the cultured seedlings during week 4 of subculturing by peeling from the stump and using a roughly 2 cm section containing the peeled portion (leaf sheath base) as an explant. The explants were then planted in a flat box containing the subculture medium (50 ml). When the seedlings were cultured for 8 weeks in a dark location at 25° C., calluses were induced at the peeled portions of the planted seedlings. Embryogenic calluses were selected by subculturing these calluses in 0.2 g/container each of subculture medium and culturing for 1 month. The embryogenic calluses were able to be maintained for 2 years while retaining adventitious embryo induction potency by subculturing to the subculture medium every 4 weeks.
0.05 g aliquots of the embryonic calluses were planted in 500 ml Erlenmeyer flasks containing 160 ml of MS liquid medium containing sucrose (1%), fructose (1.1%), BA (0.1 ppm) and MES (5 mM) (pH 5.8, to be referred to as “differentiation medium”), followed by shake culturing (80 rpm) for 6 weeks at 25° C. in a dark location (day length: 16 hours, synthetic photon flux density: 22.8 μmole/m^2/sec) to obtain adventitious embryos. 0.2 g aliquots of these adventitious embryos were implanted in MS medium containing sucrose (3%) and obtained by solidifying with agar (0.8%) (pH 5.8, to be referred to as “germination medium”) followed by culturing for 8 weeks at 25° C. in a dark location (day length: 16 hours, photosynthetic photon flux density: 5.7 μmole/m^2/sec) to cause the adventitious embryos to germinate and obtain complete plants.
Embryogenic calluses subcultured in subculture medium were subcultured in fresh subculture medium followed by dropping a 3 ppm aqueous solution of KODA onto the calluses after 1 week (7 days), 2 weeks (14 days) or 3 weeks ([…]). The cultured calluses were planted in liquid differentiation medium 3 weeks after the start of subculturing, and the differentiated adventitious embryos were recovered 6 weeks later (FIG. 1), dehydrated and weighed after dehydrating. The adventitious embryos were then planted in germination medium and the numbers of resulting germinants were counted. The number of germinants per 1 g of dehydrated adventitious embryos was calculated from the measurement results (FIG. 2). […] The effect of KODA on inducing adventitious embryos in calluses was therefore thought to be specific to the time at which it is applied.

[3] = tested on: Peucedanum japonicum greening tissue masses; test: Effect of KODA on differentiation from callus (greening tissue masses) in Peucedanum japonicum; type: cell-based; conditions: 1 μM KODA immersion
Method: Peucedanum japonicum seeds from Yonaguni Island in Okinawa Prefecture were planted in artificial soil (Metro-Mix 360, Sun Grow Horticulture Canada Ltd.) and allowed to germinate under conditions of 20° C. and a 12-hour light-dark cycle. Two months later, the seedling plants were taken out, only the above ground portion was washed well with water, and after disinfecting with 70% alcohol (10 seconds) and a 10-fold dilution of sodium hypochlorite (7 minutes), the seedling plants were rinsed four times with pure water. The petiols were cut out and a cut measuring about 5 mm in length was aseptically made therein followed by planting in MS medium (Wako Pure Chemical Industries, solidified with 0.7% agar) containing 2,4-dichlorophenoxyacetic acid (0.022 mg/L) and kinetin (10.75 mg/L) solidified with 0.7% agar. The petiols were cultured for 2 months under conditions of 25° C. and a light-dark cycle of 12 hours to grow greening tissue masses containing incomplete leaf tissue. Two months later, the greening tissue masses were immersed in 1 μM KODA (KODA treatment group) or water (control group), and placed on MS medium (solidified with 0.7% agar) to which benzyladenine (BA) was added to a concentration of 2 ppm with indoleacetic acid (IAA) to a concentration of 0.1 ppm, 0.5 ppm or 1 ppm. As can be understood from the table, although a large number of differentiated greening plant bodies were obtained from greening tissue masses immersed in KODA, only a small number of differentiated plant bodies were obtained in the control group (water) in the case of 1.0 ppm indoleacetic acid+2.0 ppm benzyladenine.

[4] = normal individuals, freeze-dried

## CC/C=C\C/C=C\CC(=O)C(O)CCCCCCCC(=O)O (centres unmarked) [KODA, 9-hydroxy-10-oxo-12(Z),15(Z)-octadecadienoic acid]
[1]
  number of redifferentiated (normally regenerated) plant bodies versus control (FIG. 4): increase in comparison with a control group at each concentration
Tobacco callus; control group 30%
  normal individuals among the redifferentiated individuals: 60%
Tobacco callus; [4]
  dry weight of above ground portions versus control (FIG. 6): no significant difference at a level of significance of 5%
  dry weight of below ground portions versus control (FIG. 6): a significant difference was confirmed at a level of significance of 5%
[2]; 3 ppm KODA dropped 1 week after subculture
  No. of germinants per flask: 431
[2]; 3 ppm KODA dropped 2 weeks after subculture
  No. of germinants per flask: 702
[2]; 3 ppm KODA dropped 3 weeks after subculture
  No. of germinants per flask: 578
[2]; 3 ppm aqueous KODA dropped onto calluses 1 week after subculture
  Dehydrated adventitious embryo weight per flask: 7.1 g
[2]; 3 ppm aqueous KODA dropped onto calluses 2 weeks after subculture
  Dehydrated adventitious embryo weight per flask: 7.2 g
[2]; 3 ppm aqueous KODA dropped onto calluses 3 weeks after subculture
  Dehydrated adventitious embryo weight per flask: 6.8 g
[2]; KODA treatment group, after two weeks
  adventitious embryos recovered in comparison with control group (FIG. 1): A large number of adventitious embryos were recovered
[3]; IAA (0.1 ppm) + BA (2.0 ppm)
  No. of redifferentiated greening plant bodies: 29
[3]; IAA (0.5 ppm) + BA (2.0 ppm)
  No. of redifferentiated greening plant bodies: 20
[3]; IAA (1.0 ppm) + BA (2.0 ppm)
  No. of redifferentiated greening plant bodies: 27
